# Columns and labels:
# [1] = target: T1, avermitilol synthase (SAV_76) (Streptomyces avermitilis, UniProt Q82RR7); test: incubation with purified recombinant enzyme, product identification; format: biochemical; details: main product avermitilol
# T1 sequence (Q82RR7 1-335): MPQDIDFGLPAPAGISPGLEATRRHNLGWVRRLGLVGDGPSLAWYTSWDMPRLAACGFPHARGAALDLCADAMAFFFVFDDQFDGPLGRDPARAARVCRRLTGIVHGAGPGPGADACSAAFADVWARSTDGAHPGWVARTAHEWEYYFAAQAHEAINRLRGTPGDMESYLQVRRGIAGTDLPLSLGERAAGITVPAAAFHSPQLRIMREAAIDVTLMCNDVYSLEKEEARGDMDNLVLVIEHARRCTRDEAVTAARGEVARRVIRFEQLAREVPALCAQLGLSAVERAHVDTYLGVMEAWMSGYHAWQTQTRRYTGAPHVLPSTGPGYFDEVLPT
# [2] = target: T2, epi-isozizaene synthase (SCO5222) (Streptomyces coelicolor, UniProt Q9K499); test: incubation with recombinant enzyme, product identification; format: biochemical
# T2 sequence (Q9K499 1-361): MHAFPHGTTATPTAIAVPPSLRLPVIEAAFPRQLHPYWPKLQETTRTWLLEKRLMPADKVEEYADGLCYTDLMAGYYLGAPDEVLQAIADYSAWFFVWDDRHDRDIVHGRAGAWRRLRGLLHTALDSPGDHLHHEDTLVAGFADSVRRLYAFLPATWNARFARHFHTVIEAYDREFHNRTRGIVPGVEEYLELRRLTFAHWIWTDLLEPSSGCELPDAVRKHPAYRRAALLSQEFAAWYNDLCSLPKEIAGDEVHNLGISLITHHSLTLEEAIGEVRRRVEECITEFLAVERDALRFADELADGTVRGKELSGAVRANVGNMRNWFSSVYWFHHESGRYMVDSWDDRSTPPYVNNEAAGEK
# [3] = target: T3, PtlA (SAV_2998), pentalenene synthase (Streptomyces avermitilis, UniProt Q82IY4); test: as above; format: biochemical
# T3 sequence (Q82IY4 1-336): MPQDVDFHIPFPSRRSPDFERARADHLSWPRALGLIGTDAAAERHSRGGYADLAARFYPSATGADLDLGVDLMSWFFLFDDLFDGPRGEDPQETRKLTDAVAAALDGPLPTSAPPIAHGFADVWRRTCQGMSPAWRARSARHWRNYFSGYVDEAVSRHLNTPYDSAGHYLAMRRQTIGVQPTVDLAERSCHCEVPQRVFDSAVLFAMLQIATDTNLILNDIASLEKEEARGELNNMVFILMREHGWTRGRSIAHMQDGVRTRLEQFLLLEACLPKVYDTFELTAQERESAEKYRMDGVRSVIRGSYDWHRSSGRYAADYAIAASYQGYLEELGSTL
# [4] = target: T4, SCO7701 (C-methyltransferase) (Streptomyces coelicolor, UniProt Q9F1Y5); test: as above; format: biochemical
# T4 sequence (Q9F1Y5 1-292): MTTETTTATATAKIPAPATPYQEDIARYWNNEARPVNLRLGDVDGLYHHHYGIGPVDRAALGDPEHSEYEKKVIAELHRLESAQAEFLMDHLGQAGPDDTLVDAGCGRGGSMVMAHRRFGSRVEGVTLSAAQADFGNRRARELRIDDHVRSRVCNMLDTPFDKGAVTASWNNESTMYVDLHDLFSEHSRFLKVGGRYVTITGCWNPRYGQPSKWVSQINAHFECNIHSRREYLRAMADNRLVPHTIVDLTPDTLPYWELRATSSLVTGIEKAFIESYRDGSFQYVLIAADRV
# PtlI (SAV_2999) = PtlI (SAV_2999) (Streptomyces avermitilis, UniProt Q82IY3); details: oxidation to pentalenal
structure (smiles),measurement,setting,value
"CC(C)=CCC/C(C)=C/CC/C(C)=C/COP(=O)(O)OP(=O)(O)O [compound 4, farnesyl diphosphate]","incubation with purified recombinant enzyme, product identification",[1],Incubation of the purified recombinant SAV76 protein with FPP gave a mixture
same,"incubation with recombinant enzyme, product identification",[2],Incubation of the recombinant protein with FPP gave as the major product
same,"incubation with recombinant enzyme, product identification",[3],Incubation of recombinant PtlA with FPP gave pentalenene
C[S+](CC[C@H](N)C(=O)O)C[C@H]1O[C@@H](n2cnc3c(N)ncnc32)[C@H](O)[C@@H]1O (stereo partly drawn) [S-adenosyl-L-methionine],"incubation with recombinant enzyme, product identification","[4]; co-substrate GPP, methyl donor",Incubation of GPP and SAM with recombinant SCO7701 gave exclusively
"CC1=C[C@@H]2CC(C)(C)C[C@@]23[C@H](C)CC[C@@H]13 [compound 6, pentalenene]","expressed enzyme, product identification",PtlI (SAV_2999),cytochrome P450 catalyzing the 3-step oxidation of pentalenene to pentalenal
"CC(C)=CCC/C(C)=C/COP(=O)(O)OP(=O)(O)O [compound 3, geranyl diphosphate]","incubation with recombinant enzyme, product identification","[4]; co-substrate SAM, product 2-MeGPP",Incubation of GPP and SAM with recombinant SCO7701 gave exclusively

# From publication PMC3288161 (Accounts of Chemical Research, 2011)
